The assay deals with T1, RORc ligand binding domain (Homo sapiens, UniProt P51449).
T1 construct: host or cells: E. coli
T1 sequence (P51449 269-508 limits assumed): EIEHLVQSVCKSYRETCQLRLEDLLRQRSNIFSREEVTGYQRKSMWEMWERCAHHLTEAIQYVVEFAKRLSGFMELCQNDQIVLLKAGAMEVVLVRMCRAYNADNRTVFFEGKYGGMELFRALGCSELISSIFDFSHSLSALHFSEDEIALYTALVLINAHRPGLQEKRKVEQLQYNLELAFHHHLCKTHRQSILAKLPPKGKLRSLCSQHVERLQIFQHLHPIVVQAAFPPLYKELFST
Nature of the assay: In Vitro RORc Ligand Binding Assay (25-[3H]hydroxycholesterol radioligand filtration). The conditions noted are these: read-out: RORc IC50.

The mark [1] stands for this setting: In Vitro RORc Ligand Binding Assay, Table 4.

Each structure is given as a SMILES string. pIC50: −log10 of the molar value. Like-named read-outs stand apart in the source and are kept apart here.

Consider `C[C@H]1CCC(c2ccccc2)S(=O)(=O)N1Cc1ccc(N[C@H]2CC[C@H](C#N)CC2)cc1F` (single isomer, unassigned) [Example 111], for which the pIC50 under setting [1] is 7.31.

`Cc1ncc2n1CCN(c1ccc(CN3[C@@H](C)CCC(c4ccccc4)S3(=O)=O)c(F)c1)C2` (stereo partly drawn) [Example 374, 7-[3-Fluoro-4-((3S)-methyl-1,1-dioxo-6-phenyl-[1,2]thiazinan-2-ylmethyl)-phenyl]-3-methyl-5,6,7,8-tetrahydro-imidazo[1,5-a]pyrazine]: the pIC50 under setting [1] is 6.78.

As to `CC(=O)N1CCN(c2ccc(CN3[C@@H](C)CCC(c4ccccc4)S3(=O)=O)cc2)CC1` (single isomer, unassigned) [Example 41], the pIC50 under setting [1] is 6.90.

For the compound `CC(=O)N1CCN(c2ccc(CN3CCC(C)CC(c4ccccc4)S3(=O)=O)c(F)c2)CC1` (single isomer, unassigned) [Example 332, 1-{4-[3-Fluoro-4-(5-methyl-1,1-dioxo-7-phenyl-[1,2]thiazepan-2-ylmethyl)-phenyl]-piperazin-1-yl}-ethanone], the pIC50 under setting [1] was 7.15.

With `CC(=O)N1CCN(c2ccc(CN3[C@H](C)CC(c4ccccc4)S3(=O)=O)c(F)c2)CC1` (single isomer, unassigned) [Example 65], under setting [1], the pIC50 is 5.64.

Take `C[C@H]1CCC(c2ccccc2)S(=O)(=O)N1Cc1ccc(N2CCn3cnnc3C2)cc1F` (single isomer, unassigned) [Example 148]: the pIC50 under setting [1] was 5.80.

With `C[C@@H](O)C(=O)N1CCN(c2ccc(CN3CCCCC(c4ccccc4)S3(=O)=O)cc2)CC1` (single isomer, unassigned) [Example 315, 1-{4-[4-(1,1-Dioxo-7-phenyl-[1,2]thiazepan-2-ylmethyl)-phenyl]-piperazin-1-yl}-2-hydroxy-propan-1-one], the pIC50 under setting [1] is 6.49.

Take `C[C@H]1CCC(c2ccccc2)S(=O)(=O)N1Cc1ccc(N2CCN3C(=O)COCC3C2)cc1F` (stereo partly drawn) [Example 417, 8-[3-Fluoro-4-((3S)-methyl-1,1-dioxo-6-phenyl-[1,2]thiazinan-2-ylmethyl)-phenyl]-hexahydro-pyrazino[2,1-c][1,4]oxazin-4-one]: the negative logarithm of the IC50 (pIC50) is 6.64.

Regarding `C[C@H]1CCC(c2ccccc2)S(=O)(=O)N1Cc1ccc(OC[C@@H]2CCC(=O)N2)cc1` (single isomer, unassigned) [Example 454], the pIC50 was 6.21.

Consider `C[C@H]1CCC(c2ccccc2)S(=O)(=O)N1Cc1ccc(C(=O)NC2CCC(O)CC2)cc1` (stereo partly drawn) [Example 274, N-(4-Hydroxy-cyclohexyl)-4-((3S)-methyl-1,1-dioxo-6-phenyl-[1,2]thiazinan-2-ylmethyl)-benzamide], for which the pIC50 under setting [1] is 5.36.

Turning to `C[C@H]1CCC(c2ccccc2)S(=O)(=O)N1Cc1ccc(N2CCC(C(=O)O)CC2)cc1F` (stereo partly drawn) [Example 120, 1-[3-Fluoro-4-((3S)-3-methyl-1,1-dioxo-6-phenyl-[1,2]thiazinan-2-ylmethyl)-phenyl]-piperidine-4-carboxylic acid], the pIC50 under setting [1] was 6.99.

Regarding `C[C@H]1CCC(c2ccccc2)S(=O)(=O)N1Cc1ccc(N2CC(C3CCOCC3)C2)cc1F` (single isomer, unassigned) [Example 106], under setting [1], the negative-log IC50 (pIC50) is 7.70.

With `C[C@H](O)C(=O)N1C[C@H]2C[C@@H]1CN2c1ccc(CN2[C@@H](C)CCC(c3ccccc3)S2(=O)=O)c(F)c1` (single isomer, unassigned) [Example 183], the negative-log IC50 (pIC50) under setting [1] is 7.40.

For `CS(=O)(=O)N1CCC(Oc2ccc(CN3CCOCC(c4ccccc4)S3(=O)=O)c(F)c2)CC1` (single isomer, unassigned) [Example 56, 5-(2-fluoro-4-((1-(methylsulfonyl)piperidin-4-yl)oxy)benzyl)-3-phenyl-1,4,5-oxathiazepane 4,4-dioxide], the pIC50 under setting [1] is 7.03.

Take `C[C@H]1CCC(c2ccccc2)S(=O)(=O)N1Cc1ccc(N2CCC(c3cn[nH]c3)CC2)cc1` (stereo partly drawn) [Example 414, (3S)-Methyl-6-phenyl-2-{4-[4-(1H-pyrazol-4-yl)-piperidin-1-yl]-benzyl}-[1,2]thiazinane 1,1-dioxide]: the pIC50 was 8.22.

Turning to `C[C@H]1CCC(c2ccccc2)S(=O)(=O)N1Cc1ccc(N2CCn3cnnc3C2)cc1F` (single isomer, unassigned) [Example 149], the pIC50 under setting [1] is 5.84.

For `C[C@H]1CCC(c2ccccc2)S(=O)(=O)N1Cc1ccc(N2CCC(n3cnnc3)CC2)cc1F` (single isomer, unassigned) [Example 151], under setting [1], the pIC50 is 7.57.

In the case of `C[C@H]1CCC(c2ccccc2)S(=O)(=O)N1Cc1ccc(NC(=O)CC2CCOCC2)cc1F` (stereo partly drawn) [Example 455, N-[3-Fluoro-4-((3S)-methyl-1,1-dioxo-6-phenyl-[1,2]thiazinan-2-ylmethyl)-phenyl]-2-(tetrahydro-pyran-4-yl)-acetamide], the negative-log IC50 (pIC50) was 6.91.

Regarding `C[C@H]1CCC(c2ccccc2)S(=O)(=O)N1Cc1ccc(N2CCN3C(=O)CNC(=O)[C@H]3C2)cc1F` (stereo partly drawn) [Example 396, (R)-8-[3-Fluoro-4-((3S)-methyl-1,1-dioxo-6-phenyl-[1,2]thiazinan-2-ylmethyl)-phenyl]-hexahydro-pyrazino[1,2-a]pyrazine-1,4-dione], the pIC50 under setting [1] is 5.49.

Regarding `C[C@H]1CCC(c2ccccc2)S(=O)(=O)N1Cc1ccc(N2CCN(C(=O)CCC#N)CC2)cc1F` (single isomer, unassigned) [Example 72], under setting [1], the pIC50 was 7.19.

As for `CC(=O)N1CCN(c2ccc(CN3C[C@@H](C)CC(c4ccccc4)S3(=O)=O)c(F)c2)CC1` (single isomer, unassigned) [Example 197], the pIC50 under setting [1] was 6.45.

With `CS(=O)(=O)N1CCC(Nc2ccc(CN3CCCCC(c4ccccc4)S3(=O)=O)c(F)c2)CC1` (single isomer, unassigned) [Example 347, [4-(1,1-Dioxo-7-phenyl-[1,2]thiazepan-2-ylmethyl)-3-fluoro-phenyl]-(1-methanesulfonyl-piperidin-4-yl)-amine], the pIC50 under setting [1] was 8.30.

Turning to `CC(=O)N1CCN(c2ccc(CN3C(C)(C)CCC(c4ccccc4)S3(=O)=O)c(F)c2)CC1` (single isomer, unassigned) [Example 14, 1-{4-[4-(3,3-Dimethyl-1,1-dioxo-6-phenyl-[1,2]thiazinan-2-ylmethyl)-3-fluoro-phenyl]-piperazin-1-yl}-ethanone], the pIC50 under setting [1] is 5.72.

For `CC(=O)N1CCN(c2ccc(CN3[C@@H](C)CCC(c4ccc(C#N)cc4)S3(=O)=O)c(F)c2)CC1` (single isomer, unassigned) [Example 172], the pIC50 under setting [1] is 5.99.

For the compound `CON(C)C(=O)C1CCN(c2ccc(CN3[C@@H](C)CCC(c4ccccc4)S3(=O)=O)c(F)c2)CC1` (single isomer, unassigned) [Example 146], the pIC50 under setting [1] was 6.85.

As to `C[C@H]1CCC(c2ccccc2)S(=O)(=O)N1Cc1ccc(C(=O)N2CCC(CO)CC2)cc1` (stereo partly drawn) [Example 278, (4-Hydroxymethyl-piperidin-1-yl)-[4-((3S)-methyl-1,1-dioxo-6-phenyl-[1,2]thiazinan-2-ylmethyl)-phenyl]-methanone], the pIC50 under setting [1] was 5.96.

`C[C@H]1CCC(c2ccccc2)S(=O)(=O)N1Cc1ccc(C(=O)N2CCn3nccc3C2)cc1` (stereo partly drawn) [Example 373, (6,7-Dihydro-4H-pyrazolo[1,5-a]pyrazin-5-yl)-[4-((3S)-methyl-1,1-dioxo-6-phenyl-[1,2]thiazinan-2-ylmethyl)-phenyl]-methanone]: under setting [1], the pIC50 was 5.36.

As to `CC(=O)N1CCN(c2ccc(CN3[C@@H](C)CCC(c4ccccc4)S3(=O)=O)c(F)c2)C[C@H]1C#N` (stereo partly drawn) [Example 385, (S)-1-Acetyl-4-[3-fluoro-4-((3S)-methyl-1,1-dioxo-6-phenyl-[1,2]thiazinan-2-ylmethyl)-phenyl]-piperazine-2-carbonitrile], the pIC50 under setting [1] was 6.62.

Regarding `CS(=O)(=O)N1CCC(Oc2ccc(CN3CCCC(c4ccccc4)S3(=O)=O)c(F)c2)CC1` (single isomer, unassigned) [Example 54, 2-(2-fluoro-4-((1-(methylsulfonyl)piperidin-4-yl)oxy)benzyl)-6-phenyl-1,2-thiazinane 1,1-dioxide], the negative-log IC50 (pIC50) under setting [1] was 7.43.

Turning to `CS(=O)(=O)N1CCC(Nc2ccc(CN3CCCCC(c4ccccc4)S3(=O)=O)cc2)CC1` (single isomer, unassigned) [Example 324, [4-(1,1,-Dioxo-7-phenyl-[1,2]thiazepan-2-ylmethyl)-phenyl]-(1-methanesulfonyl-piperidin-4-yl)-amine], the pIC50 under setting [1] was 8.52.

Consider `CC(=O)N1CCN(c2ccc(CN3[C@@H](C)COCC(c4ccccc4)S3(=O)=O)c(F)c2)CC1` (single isomer, unassigned) [Example 25], for which the pIC50 under setting [1] was 7.49.

Regarding `COC(=O)[C@H]1CN(c2ccc(CN3[C@@H](C)CCC(c4ccccc4)S3(=O)=O)c(F)c2)CCN1C(C)=O` (stereo partly drawn) [Example 260, 1-Acetyl-4-[3-fluoro-4-((3S)-methyl-1,1-dioxo-6-phenyl-[1,2]thiazinan-2-ylmethyl)-phenyl]-piperazine-2-carboxylic acid methyl ester], the pIC50 under setting [1] is 7.51.

In the case of `CC(=O)N1CCN(c2ccc(CN3[C@H](C)CCC(c4ccccc4)S3(=O)=O)cn2)CC1` (single isomer, unassigned) [Example 49], the pIC50 under setting [1] is 5.26.

With `C[C@H]1CCC(c2ccccc2)S(=O)(=O)N1Cc1ccc(N2CC(C3CCOCC3)C2)cc1F` (single isomer, unassigned) [Example 108], the negative logarithm of the IC50 (pIC50) under setting [1] was 7.48.

Take `CC(=O)N1CCN(c2ccc(CN3[C@@H](C)CCC(c4ccccc4)S3(=O)=O)c(F)c2)C[C@H]1C` (stereo partly drawn) [Example 264, 1-{4-[3-Fluoro-4-((3S)-methyl-1,1-dioxo-6-phenyl-[1,2]thiazinan-2-ylmethyl)-phenyl]-2-methyl-piperazin-1-yl}-ethanone]: the pIC50 under setting [1] was 7.74.

Consider `C[C@H]1CCC(c2ccccc2)S(=O)(=O)N1Cc1ccc(C(=O)NCCCN2CCCC2=O)cc1` (stereo partly drawn) [Example 272, 4-((3S)-Methyl-1,1-dioxo-6-phenyl-[1,2]thiazinan-2-ylmethyl)-N-[3-(2-oxo-pyrrolidin-1-yl)-propyl]-benzamide], for which the pIC50 under setting [1] is 5.54.

The values are drawn from patent publication US9115101B2 (Genentech, Inc., priority 2012, dated 2015).
